According to patent publication US20060002960A1 (priority 2003, published 2006):
“And” between values parts separate entries of the source, which are not always exact repeats. Identical values can stand only once. Like-named read-outs stand apart in the source and are kept apart here.

Assays:
[1] = test system: LT or CT; settings: cited from earlier work
[2] = test system: mice; settings: mouse, in vivo
[3] = test system: C57B1/6 mice; settings: mouse, in vivo
[4] = test system: Balb/c mice; settings: mouse, in vivo, po
[5] = test system: mice; settings: mouse, in vivo; remark: listed apart in the source
[6] = test system: C57B1/6 mice; settings: mouse, in vivo; remark: listed apart in the source
[7] = cited from earlier work
[8] = test system: C57B1/6 mice; settings: mouse, in vivo; remark: listed apart in the source
[9] = test system: C57B1/6 mice; settings: mouse, in vivo; remark: listed apart in the source
[10] = test system: C57B1/6 mice; settings: mouse, in vivo; remark: listed apart in the source
[11] = test system: C57B1/6 mice; settings: mouse, in vivo; remark: listed apart in the source
[12] = test system: Y-1 adrenal cells; format: cell-based
[13] = test system: C57B1/6 mice; settings: mouse, in vivo; remark: listed apart in the source
[14] = test system: mice; settings: mouse, in vivo; remark: listed apart in the source
[15] = test system: C57B1/6 mice; settings: mouse, in vivo; remark: listed apart in the source
[16] = test system: mice; settings: mouse, in vivo; remark: listed apart in the source

O=[N+]([O-])c1cccc(OC2OC(CO)C(O)C(O)C2O)c1 (stereo not drawn) [m-nitrophenyl α-galactoside]
IC50 [1]: 600 to 700 µM

O=C(O)[C@H](O)[C@@H](O)[C@H](O)[C@H](O)CO[C@H]1O[C@H](CO)[C@H](O)[C@H](O)[C@H]1O [melibionic acid]
IC50 [1]: 5000 to 11000 µM

Nc1ccc(OC2OC(CO)C(O)C(O)C2O)cc1 (stereo not drawn) [p-aminophenyl α-galactoside]
IC50 [1]: 4800 to 12000 µM

Escherichia coli heat-labile enterotoxin [LT]
examination of the injection sites [2]: developed edema and inflammation at the site of injection | Flu A IgG, Assay values (Elisa Units) Individual Mice [3]: 150 Elisa Units and 102 Elisa Units and 47 Elisa Units and 45 Elisa Units and 642 Elisa Units and 15498 Elisa Units and 3137 Elisa Units and 6852 Elisa Units and 18563 Elisa Units and 28151 Elisa Units | fold increase in G:C compared to the buffer control group [4]: 2.4 fold | inflammatory response after IM injection [5]: swelling of the thigh muscle | inflammatory response after SC injection ([5]; sc): formation of a large nodule | anti-OVA antibody titers GMT [6]: 32,000 | Kd [7]: 0.0007 µM | Anti-OVA titers GMT [8]: 51,000 | anti-LT IgG titers GMT [8]: 30,000 | fold increase of Anti-OVA titers [8]: 37 fold | histological examination of injection site [9]: elicited an inflammatory response that persisted for days | mice with inflammatory response [9]: 4 of 7 | persistence of induration [9]: greater than 2 weeks | skin nodules (incidence, words) [9]: did not cause skin nodules in six out of the seven injected mice | skin nodules / inflammatory response after intradermal injection [9]: caused skin nodules in all mice | toxin-induced inflammation [9]: completely abolished | anti-TT IgG titers GMT [10]: 150,000 | anti-TT titers [10]: significantly increased | TT IgG, Assay values (Elisa Units) Individual Mice [11]: 188314 Elisa Units and 222731 Elisa Units and 178753 Elisa Units and 88333 Elisa Units and 192934 Elisa Units and 201494 Elisa Units and 169482 Elisa Units and 379919 Elisa Units and 73992 Elisa Units and 615173 Elisa Units and 204102 Elisa Units and 146225 Elisa Units and 183724 Elisa Units and 323948 Elisa Units and 202170 Elisa Units and 185486 Elisa Units and 85832 Elisa Units and 163652 Elisa Units and 208284 Elisa Units and 83436 Elisa Units and 63293 Elisa Units and 50116 Elisa Units and 121818 Elisa Units and 176340 Elisa Units and 114780 Elisa Units and 131805 Elisa Units and 6246 Elisa Units and 11745 Elisa Units and 31797 Elisa Units | anti-TT IgG GMT [11]: 282,000 | fold greater anti-TT IgG titers than the non-adjuvanted group [11]: 34 fold | immune response to co-administered TT [11]: significantly enhanced | rounding of cultured cells [12]: 70-100% | percentage of rounded cells ([12]; 0.05 ng/ml, 6-8 h): −−− (key: +++ 70-100% rounded cells; ++ 50-75%; + 25-50%; −−− <25%) | percentage of rounded cells ([12]; 0.1 ng/ml, 6-8 h): −−− (key: +++ 70-100% rounded cells; ++ 50-75%; + 25-50%; −−− <25%) | percentage of rounded cells ([12]; 0.2 ng/ml, 6-8 h): + (key: +++ 70-100% rounded cells; ++ 50-75%; + 25-50%; −−− <25%) | percentage of rounded cells ([12]; 0.4 ng/ml, 6-8 h): ++ (key: +++ 70-100% rounded cells; ++ 50-75%; + 25-50%; −−− <25%) | percentage of rounded cells ([12]; 0.8 ng/ml, 6-8 h): +++ (key: +++ 70-100% rounded cells; ++ 50-75%; + 25-50%; −−− <25%) | percentage of rounded cells ([12]; 1.6 ng/ml, 6-8 h): +++ (key: +++ 70-100% rounded cells; ++ 50-75%; + 25-50%; −−− <25%) | percentage of rounded cells ([12]; 3.1 ng/ml, 6-8 h): +++ (key: +++ 70-100% rounded cells; ++ 50-75%; + 25-50%; −−− <25%) | percentage of rounded cells ([12]; 6.3 ng/ml, 6-8 h): +++ (key: +++ 70-100% rounded cells; ++ 50-75%; + 25-50%; −−− <25%) | percentage of rounded cells ([12]; 12.5 ng/ml, 6-8 h): +++ (key: +++ 70-100% rounded cells; ++ 50-75%; + 25-50%; −−− <25%) | percentage of rounded cells ([12]; 25 ng/ml, 6-8 h): +++ (key: +++ 70-100% rounded cells; ++ 50-75%; + 25-50%; −−− <25%) | percentage of rounded cells ([12]; 50 ng/ml, 6-8 h): +++ (key: +++ 70-100% rounded cells; ++ 50-75%; + 25-50%; −−− <25%) | percentage of rounded cells ([12]; 100 ng/ml, 6-8 h at 37° C.): +++ (key: +++ 70-100% rounded cells; ++ 50-75%; + 25-50%; −−− <25%) | anti-LT antibody titers GMT [13]: 196,000 | times more IFNγ and IL4 producing lymphocytes compared to TT alone [14]: 10 times | lymph node cell response to re-stimulation with OVA or LT [15]: did respond to in vitro re-stimulation with OVA or LT by producing IFN-γ and IL-4 | spleen cell IFN-γ response to re-stimulation [15]: did respond to re-stimulation by producing IFN-γ

Gal-β1,3-GalNAc-β1,4-(NeuAc-α2,3)-Gal-β1,4-Glc-β1,1-ceramide [GM1]
Diameter skin nodules, Average Mean ± SD [9]: 0 cm | Diameter skin nodules, Individual Mice [9]: 0 cm | skin nodules / inflammatory response after intradermal injection [9]: not inflammatory | Kd ([1]; read-out: affinity): 0.0001 to 0.01 µM

cholera toxin [CT]
TT IgG, Geometric mean [2]: 95419 Elisa Units | fold higher titers than the non-adjuvanted vaccine [2]: 823 fold | fold more active than CT/GM1 [2]: 1.6 to 3 fold | TT IgG, Assay values (Elisa Units) Individual Mice [16]: 71077 Elisa Units and 113082 Elisa Units and 75238 Elisa Units and 123721 Elisa Units and 61438 Elisa Units | TT IgG, Geometric mean [16]: 85603 Elisa Units | fold higher antibody titers to TT than the non-adjuvanted vaccine [16]: 426 fold | inflammatory response after IM injection [5]: muscle swelling | Kd [7]: 0.0006 µM | skin nodules / inflammatory response after intradermal injection [9]: skin nodules | TT IgG, Assay values (Elisa Units) Individual Mice [11]: 11222 Elisa Units and 14300 Elisa Units and 29533 Elisa Units and 63092 Elisa Units and 125687 Elisa Units | TT IgG, Geometric mean [11]: 32734 Elisa Units | fold greater antibody titers to TT than the non-adjuvanted vaccine [11]: 105 fold
